Source: ChEMBL document CHEMBL2424599, “Design, synthesis, docking study and biological evaluation of some novel tetrahydrochromeno [3',4':5,6]pyrano[2,3-b]quinolin-6(7H)-one derivatives against acetyl- and butyrylcholinesterase” (Eur J Med Chem, 2013)

Tests used:
[1] = target: Cholinesterase (Equus caballus, UniProt P81908)
Description: Inhibition of equine serum BChE using butyrylthiocholine iodide as substrate preincubated for 10 mins prior to substrate addition by Ellman's method

[2] = target: T1, Acetylcholinesterase (Electrophorus electricus, UniProt O42275)
Description: Inhibition of electric eel AChE using acetylthiocholine iodide as substrate preincubated for 10 mins prior to substrate addition by Ellman's method

[3] = target: T1, Acetylcholinesterase; assay: Mixed-type inhibition of electric eel AChE using acetylthiocholine iodide as substrate by Lineweaver-Burk plot analysis

T1 sequence (O42275 whole entry): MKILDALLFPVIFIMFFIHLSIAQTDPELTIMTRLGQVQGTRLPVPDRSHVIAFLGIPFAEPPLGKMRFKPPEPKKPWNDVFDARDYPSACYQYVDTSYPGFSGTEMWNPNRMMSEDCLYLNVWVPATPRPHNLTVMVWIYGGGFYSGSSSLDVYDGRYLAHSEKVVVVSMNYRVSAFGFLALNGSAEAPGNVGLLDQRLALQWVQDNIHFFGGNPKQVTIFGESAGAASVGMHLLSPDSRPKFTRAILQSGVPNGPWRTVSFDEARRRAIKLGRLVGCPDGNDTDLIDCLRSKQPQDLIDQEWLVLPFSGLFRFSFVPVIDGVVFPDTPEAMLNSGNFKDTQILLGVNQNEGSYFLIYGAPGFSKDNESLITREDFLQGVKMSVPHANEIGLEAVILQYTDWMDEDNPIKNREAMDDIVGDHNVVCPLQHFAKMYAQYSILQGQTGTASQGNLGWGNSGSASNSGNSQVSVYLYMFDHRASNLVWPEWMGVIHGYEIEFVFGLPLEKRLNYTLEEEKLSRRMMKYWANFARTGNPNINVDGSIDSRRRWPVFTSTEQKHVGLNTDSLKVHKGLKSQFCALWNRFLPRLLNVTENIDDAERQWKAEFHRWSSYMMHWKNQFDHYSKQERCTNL
Sequence of Cholinesterase (P81908 whole entry): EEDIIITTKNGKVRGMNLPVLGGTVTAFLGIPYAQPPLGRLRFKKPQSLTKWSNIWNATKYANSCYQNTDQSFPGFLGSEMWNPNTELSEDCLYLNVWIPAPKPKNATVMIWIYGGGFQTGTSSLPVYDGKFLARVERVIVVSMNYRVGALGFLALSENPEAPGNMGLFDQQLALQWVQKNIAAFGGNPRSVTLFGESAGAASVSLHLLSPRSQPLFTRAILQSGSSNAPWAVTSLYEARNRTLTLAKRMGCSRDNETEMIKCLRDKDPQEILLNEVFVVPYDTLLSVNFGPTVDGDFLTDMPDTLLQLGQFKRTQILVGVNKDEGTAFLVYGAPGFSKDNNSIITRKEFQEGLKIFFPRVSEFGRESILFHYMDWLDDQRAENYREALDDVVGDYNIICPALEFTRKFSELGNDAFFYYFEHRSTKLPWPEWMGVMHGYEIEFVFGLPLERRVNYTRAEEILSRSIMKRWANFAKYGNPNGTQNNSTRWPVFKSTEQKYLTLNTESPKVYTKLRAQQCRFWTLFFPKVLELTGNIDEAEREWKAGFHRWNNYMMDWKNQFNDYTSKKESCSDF

Row | SMILES | IC50 [1] [nM] | IC50 [2] [nM] | Ki [3] [nM]
1 | Nc1c2c(nc3c1C(c1cccc([N+](=O)[O-])c1)c1c(c4ccccc4oc1=O)O3)CCCC2 (configuration not stated) | 18300 | 141 | –
2 | COc1ccc(C2c3c(nc4c(c3N)CCCC4)Oc3c2c(=O)oc2ccccc32)cc1OC (configuration not stated) | 2100 | 43 | –
3 | CCCCC1c2c(nc3c(c2N)CCCC3)Oc2c1c(=O)oc1ccccc21 (configuration not stated) | 23000 | 57 | –
4 | Nc1c2c(nc3c1C(c1cccs1)c1c(c4ccccc4oc1=O)O3)CCCC2 (configuration not stated) | 6700 | 84 | –
5 | CC1c2c(nc3c(c2N)CCCC3)Oc2c1c(=O)oc1ccccc21 (configuration not stated) | 1220 | 432 | –
6 | COc1ccc(C2c3c(nc4c(c3N)CCCC4)Oc3c2c(=O)oc2ccccc32)cc1 (configuration not stated) | 840 | 16 | –
7 | Nc1c2c(nc3c1C(c1cccc(Cl)c1)c1c(c4ccccc4oc1=O)O3)CCCC2 (configuration not stated) | > 30000 | 288 | –
8 | COc1cc(C2c3c(nc4c(c3N)CCCC4)Oc3c2c(=O)oc2ccccc32)cc(OC)c1OC (configuration not stated) | 3260 | 69 | –
9 | Nc1c2c(nc3c1C(c1ccc(Cl)cc1Cl)c1c(c4ccccc4oc1=O)O3)CCCC2 (configuration not stated) | > 30000 | 50 | –
10 | Nc1c2c(nc3c1C(c1ccccc1)c1c(c4ccccc4oc1=O)O3)CCCC2 (configuration not stated) | 1700 | 24 | –
11 | Nc1c2c(nc3c1C(c1ccccc1Cl)c1c(c4ccccc4oc1=O)O3)CCCC2 (configuration not stated) | 4900 | 35 | –
12 | Nc1c2c(nc3c1C(c1ccc(Cl)cc1)c1c(c4ccccc4oc1=O)O3)CCCC2 (configuration not stated) | > 30000 | 93 | –
13 | Nc1c2c(nc3c1C(c1ccc4c(c1)OCO4)c1c(c4ccccc4oc1=O)O3)CCCC2 (configuration not stated) | 570 | 13 | –
14 | Nc1c2c(nc3c1C(c1cccc(F)c1)c1c(c4ccccc4oc1=O)O3)CCCC2 (configuration not stated) | 890 | 67 | –
15 | CCC1c2c(nc3c(c2N)CCCC3)Oc2c1c(=O)oc1ccccc21 (configuration not stated) | 5600 | 266 | –
16 | Nc1c2c(nc3c1C(c1ccncc1)c1c(c4ccccc4oc1=O)O3)CCCC2 (configuration not stated) | > 30000 | 53 | –
17 | Nc1c2c(nc3c1C(c1ccc(F)cc1)c1c(c4ccccc4oc1=O)O3)CCCC2 (configuration not stated) | 15700 | 5 | 22.4
18 | Cc1ccc(C2c3c(nc4c(c3N)CCCC4)Oc3c2c(=O)oc2ccccc32)cc1 (configuration not stated) | > 30000 | 14 | –
